Measurements reported in patent publication US20030153611A1, “1,3-Diarylprop-2-en-1-ones, compositions containing them and use thereof” (AVENTIS PHARMA S.A., priority 2001, published 2003).
Where a name gives a salt, the structure may show the parent alone.

Experiments:
Tubulin = molecular target: T1, Tubulin (Sus scrofa, UniProt P02550+P02554); assay: Assessment of the inhibition of tubulin polymerization (turbidimetry); format: biochemical, pig; settings: tubulin 10 μM, turbidity at 350 nm, 37° C.
T1 construct: Tubulin is purified from pig brains according to the published methods; from tissue; host or cells: pig brain
T1 sequence (P02550 whole entry): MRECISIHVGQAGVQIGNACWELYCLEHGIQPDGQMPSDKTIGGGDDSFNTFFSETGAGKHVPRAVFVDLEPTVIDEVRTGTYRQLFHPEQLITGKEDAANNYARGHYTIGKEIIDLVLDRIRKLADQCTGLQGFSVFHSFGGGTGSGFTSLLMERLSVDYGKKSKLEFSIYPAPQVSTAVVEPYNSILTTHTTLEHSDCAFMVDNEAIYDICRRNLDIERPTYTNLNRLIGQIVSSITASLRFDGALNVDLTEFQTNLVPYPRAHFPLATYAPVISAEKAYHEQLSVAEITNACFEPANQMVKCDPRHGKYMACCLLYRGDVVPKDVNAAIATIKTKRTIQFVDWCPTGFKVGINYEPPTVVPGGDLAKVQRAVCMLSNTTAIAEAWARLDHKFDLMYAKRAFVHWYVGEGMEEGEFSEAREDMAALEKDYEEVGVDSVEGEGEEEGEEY
T1 sequence (P02554 whole entry): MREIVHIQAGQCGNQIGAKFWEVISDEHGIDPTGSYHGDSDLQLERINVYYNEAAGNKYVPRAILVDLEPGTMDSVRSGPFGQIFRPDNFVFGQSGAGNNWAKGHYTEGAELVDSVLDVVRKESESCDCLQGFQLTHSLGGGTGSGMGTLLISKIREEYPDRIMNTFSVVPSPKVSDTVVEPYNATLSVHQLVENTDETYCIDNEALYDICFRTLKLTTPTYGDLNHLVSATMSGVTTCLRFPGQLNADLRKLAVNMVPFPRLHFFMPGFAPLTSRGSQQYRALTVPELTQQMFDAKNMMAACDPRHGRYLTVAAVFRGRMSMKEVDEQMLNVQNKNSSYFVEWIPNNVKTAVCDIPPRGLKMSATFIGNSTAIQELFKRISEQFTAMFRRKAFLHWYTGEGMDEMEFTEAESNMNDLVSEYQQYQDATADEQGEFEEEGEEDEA
Description: Tubulin is purified from pig brains according to the published methods (Shelanski et al., 1973, Proc. Natl, Acad. Sci. USA, 70, 765-768. Weingarten et al., 1975, Proc. Natl, Acad. Sci. USA, 72, 1858-1862). Briefly, the brains are ground and centrifuged in an extraction buffer. The tubulin, contained in the extract supernatant, is subjected to two successive cycles of polymerization at 37° C. and depolymerization at 4° C., before being separated from the MAPs (Microtubule Associated Proteins) by chromatography on a phosphocellulose P11 column (Whatman). The tubulin thus isolated is more than 95% pure. It is stored in a buffer known as RB/2 30% glycerol, the composition of which is MES-NaOH [2-(N-morpholino)ethanesulfonic acid] 50 mM, pH 6.8; MgCl2 0.25 mM; EGTA 0.5 mM; 30% glycerol (v/v), GTP (guanosine 5′-triphosphate) 0.2 mM.
The polymerization of the tubulin into microtubules is monitored by turbidimetry as follows; the tubulin is adjusted to a concentration of 10 μM (1 mg/ml) in the RB/2 30% glycerol buffer, to which is added 1 mM GTP and 6 mM MgCl2. The polymerization is initiated by increasing the temperature from 6° C. to 37° C. in a cuvette with a 1 cm optical pathlength, placed in a Uvikon 931 spectrophotometer (Kontron) equipped with a thermostatically-regulated cuvette holder. The increase in the turbidity of the solution is monitored at 350 nm.
The products are dissolved at 10 mM in DMSO and added at variable concentrations (0.5 to 10 μM) to the tubulin solution before polymerization. The IC50 value is defined as the concentration of product which inhibits 50% of the rate of polymerization. A product whose IC50 value is less than or equal to 3 μM is considered as very active.

HDMEC = assay: Inhibition of cell proliferation, HDMEC; format: cell-based; settings: Homo sapiens
HeLa cells = assay: Inhibition of proliferation of HeLa cells ([14C]-thymidine incorporation); format: cell-based; settings: Homo sapiens, incubation for 48 hours, read-out: Inhibition of cell proliferation IC50 HeLa
Description: The proliferation of HeLa cells is assessed by measuring the incorporation of [^14C]-thymidine in the following way. The HeLa cells (epithelial tumor cells of human origin) are cultured in a DMEM medium (Gibco) which contains 10% fetal calf serum and antibiotics (1% penicillin, 1% streptomycin). To carry out the proliferation test, the cells are inoculated into 96-well cytostar microplates (Amersham), at a rate of 5 000 cells per well. [^14C]-thymidine (0.1 μCi/well) and the products to be assessed are then added. Variable concentrations of products up to 10 μM are used; the DMSO (solvent used to dissolve the products) should not exceed 0.5% in the medium. After incubation for 48 hours at 37° C., the radioactivity incorporated into the cells is measured by counting the plate in a TRI-LUX counter (Wallac). The IC50 value is defined as the concentration of product which reduces the radioactivity by 50% relative to an untreated control. A product whose IC50 value is less than 1 μM is considered as cytotoxic.

HDMEC cells = assay: Detachment effect on HDMEC endothelial cells; format: cell-based, Human; settings: treatment for two hours
Source text: A test to determine the detachment of endothelial cells was established in order to select the products on the basis of their “in vitro” activity. This test for determining the endothelial cell detachment is characterized in that the endothelial cells, inoculated in plates which are coated at the bottom with a binder, e.g., chosen from gelatin, fibronectin or vitronectin, after culturing, are supplemented with a medium containing the test compound, and the cells are then labeled with a fluorescent substance, the cells which become detached are removed by washing and the fluorescence of the remaining cells is counted in a fluorimeter.
This test consists in measuring the detachment of endothelial cells cultured on substrates based on a binder, e.g., chosen from fibronectin, vitronectin and gelatin. One day after inoculating the cells in plates containing 96 wells, for example, the culture medium is replaced with a medium containing the test compound in the absence of serum. The same preparation is prepared six times at three different concentrations ([…]) and the control without addition of antivascular product is prepared six times. After treatment for two hours with the test substance, the cells are labeled with calcein-AM (1.6 μg/ml) in a culture medium supplemented with 0.1% BSA. The cells which become detached are removed by washing with the culture medium containing 0.1% bovine serum albumin; 100 μl of medium are added to each well. The fluorescence of the remaining cells is counted in a fluorimeter. The data obtained are expressed relative to the control (untreated cells).
(§1) The assessment of the detachment of the endothelial cells in vitro is determined in the following way. HDMEC cells (Human Dermal Microvascular Endothelial Cells, Promocell, c-122102) are cultured in an ECGM-MV medium containing 5% fetal calf serum, growth factors (EGF 10 ng/ml, hydrocortisone 1 μg/ml, 0.4% growth supplement with heparin) and antibiotics (amphotericin 50 ng/ml, gentamicin 50 μg/ml). For the detachment test, the HDMECs are inoculated at a rate of 5 000 cells in clear-bottomed 96-well plates (Costar) precoated with fibronectin (10 μg/ml) or vitronectin (1 μg/ml) or gelatin. Twenty-four hours later, the culture medium is replaced with 0.1% BSA ECGM-MV medium containing the indicated products. The test concentrations are 0.1-0.3 and 1 μM for each product. After treatment for two hours, the cells are labeled for 1 hour with calcein (1.6 μg/ml, Molecular Probes) in 0.1% BSA ECGM-MV medium. The detached cells are then removed by washing with 0.1% BSA ECGM-MV medium; 100 μl of medium are added to each well. The fluorescence of the cells which remain attached to the substratum of the well is counted using a fluorimeter, Spectrafluor Plus (Tecan, excitation at 485 nm, and emission at 535 nm). The data are the average of six different samples and are expressed as a percentage of the control (untreated cells).
A cell detachment effect of greater than or equal to 15% is considered as significant.
as §1, with “(amphotericine” for “(amphotericin”, “The detached cells are then removed by washing with 0.1% BSA ECGM-MV medium; 100 μl of medium are added to each well. The fluorescence of the cells which remain attached to the substratum of the well is counted using a fluorimeter, Spectrafluor Plus (Tecan, excitation at 485 nm, and emission at 535 nm). The data are the average of six different samples and are expressed as a percentage of the control (untreated cells).” left out

IC50 (Tubulin) | SMILES | IC50 (HDMEC) | IC50 (HeLa cells) | Percentage of detachment of HDMEC cells induced with the compound at a concentration of 0.1 μM (HDMEC cells) | Percentage of detachment of HDMEC cells induced with the compound at a concentration of 0.3 μM (HDMEC cells) | Percentage of detachment of HDMEC cells induced with the compound at a concentration of 1 μM (HDMEC cells)
2000 nM | COc1cc(C(=NO)/C(C)=C/c2ccc3c(ccn3C)c2)cc(OC)c1OC (mixture of isomers) [Example 7, E-2-Methyl-3-(1-methyl-1-H-indol-5-yl)-1-(3,4,5-trimethoxyphenyl)propenoneoxime] | 300 to 500 nM | – | – | – | –
2500 nM | COc1cc(/C=C(\C)C(=O)c2cc(OC)c(OC)c(OC)c2)ccc1N [Example 2, E-3-(4-Amino-3-methoxyphenyl)-2-methyl-1-(3,4,5-trimethoxyphenyl)propenone] | 1.9 to 4 nM | 39 to 104 nM | 16-21% | 17-32% | 31-49%
800 nM | COc1cc(C(=N\O)/C(C)=C/c2ccc3c(ccn3C)c2)cc(OC)c1OC [Example 8, E-2-Methyl-3-(1-methyl-1-H-indol-5-yl)-1-(3,4,5-trimethoxyphenyl)propenone Z-oxime] | – | – | – | – | –
3500 nM | COc1cc(C(=N/O)/C(C)=C/c2ccc3c(ccn3C)c2)cc(OC)c1OC [Example 9, E-2-Methyl-3-(1-methyl-1-H-indol-5-yl)-1-(3,4,5-trimethoxyphenyl)propenone E-oxime] | – | – | – | – | –
– | COc1ccc(/C=C(\C)C(=O)c2cc(OC)c(OC)c(OC)c2)cc1NC(=O)[C@@H](N)CCCNC(=N)N[N+](=O)[O-] [Example 11, 2-Amino-5-[3-(1-nitroguanidino)]-pentanoic acid {2-methoxy-5-[2-methyl-3-oxo-3-(3,4,5-trimethoxy-phenyl)propenyl]phenyl}amide hydrochloride] | 400 nM | – | – | – | –
– | COc1ccc(/C=C(\C)C(=O)c2cc(OC)c(OC)c(OC)c2)cc1NC(=O)[C@@H]1CCCN1C [Example 12, 1-Methylpyrrolidine-2-carboxylic acid {2-methoxy-5-[2-methyl-3-oxo-3-(3,4,5-trimethoxyphenyl)propenyl]phenyl}amide hydrochloride] | 320 nM | – | – | – | –
500 nM | COc1cc(C(=O)/C(C)=C/c2ccc3c(ccn3C)c2)cc2c1OCO2 [Example 16, E-2-Methyl-3-(1-methyl-1-H-indol-5-yl)-1-(3-methoxy-4,5-methylenedioxyphenyl)propenone] | – | – | – | – | –
800 nM | COc1cc(C(=O)/C(C)=C/c2ccc3[nH]ccc3c2)cc(OC)c1OC [Example 19, E-2-Methyl-3-(1-H-indol-5-yl)-1-(3,4,5-trimethoxyphenyl)propenone] | – | – | – | – | –
2000 nM | COc1cc(C(=O)/C(C)=C/c2ccc3c(ccn3CCN(C)C)c2)cc(OC)c1OC [Example 20, E-2-Methyl-3-[1-(2-dimethylaminoethyl)-1-H-indol-5-yl]-1-(3,4,5-trimethoxyphenyl)propenone hydrochloride] | – | – | – | – | –
500 nM | COc1cc(C(=O)/C(C)=C/c2ccc3c(ccn3CO)c2)cc(OC)c1OC [Example 21, E-2-Methyl-3-(1-hydroxymethyl-1-H-indol-5-yl)-1-(3,4,5-trimethoxyphenyl)propenone] | – | – | – | – | –

SMILES | IC50 (Tubulin) | IC50 (HDMEC) | IC50 (HeLa cells) | Percentage of detachment of HDMEC cells induced with the compound at a concentration of 0.1 μM (HDMEC cells) | Percentage of detachment of HDMEC cells induced with the compound at a concentration of 0.3 μM (HDMEC cells) | Percentage of detachment of HDMEC cells induced with the compound at a concentration of 1 μM (HDMEC cells)
COc1ccc(/C=C(\C)C(=O)c2cc(OC)c(OC)c(OC)c2)cc1N [Example 1, E-3-(3-Amino-4-methoxyphenyl)-2-methyl-1-(3,4,5-trimethoxyphenyl)propenone] | 300 nM | 2.5 to 3.2 nM | 3.6 to 4.3 nM | 21-36% | 18-38% | 37-42%
COc1ccc(OC)c(C(=O)/C(C)=C/c2ccc(OC)c(N)c2)c1.Cl [Example 3, E-3-(3-Amino-4-methoxyphenyl)-2-methyl-1-(2,5-dimethoxyphenyl)propenone hydrochloride] | 500 nM | < 19 nM | < 19 nM | 31% | 37% | 34%
COc1ccc(/C=C(\Br)C(=O)c2cc(OC)c(OC)c(OC)c2)cc1N [Example 4, E-3-(3-Amino-4-methoxyphenyl)-2-bromo-1-(3,4,5-trimethoxyphenyl)propenone] | 600 nM | – | – | – | – | –
COc1ccc(/C=C(\C)C(=O)c2cc(OC)c(OC)c(OC)c2)cc1NC(=O)[C@@H](N)C(C)C [Example 15, (S)-2-Amino-3-methylbutanoic acid {2-methoxy-5-[2-methyl-3-oxo-3-(3,4,5-trimethoxy-phenyl)propenyl]phenyl}amide hydrochloride] | 9000 nM | 30 to 60 nM | – | – | – | –
